In patent US20110092526A1, “Adamantyl Iminocarbonyl-Substituted Pyrimidines As Inhibitors Of 11-Beta-HSD1 826” (ASTRAZENECA AB, priority 2009, published 2011) one finds IC50 data, which are given here for 21 compounds.

T1 sequence (P28845 whole entry): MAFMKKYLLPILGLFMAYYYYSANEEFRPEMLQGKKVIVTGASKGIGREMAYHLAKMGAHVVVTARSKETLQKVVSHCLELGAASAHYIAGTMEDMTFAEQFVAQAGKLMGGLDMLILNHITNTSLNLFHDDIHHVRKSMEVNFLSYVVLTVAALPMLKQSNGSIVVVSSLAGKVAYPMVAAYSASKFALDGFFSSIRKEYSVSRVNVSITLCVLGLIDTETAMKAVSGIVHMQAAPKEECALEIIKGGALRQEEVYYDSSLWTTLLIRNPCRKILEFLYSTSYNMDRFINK

This experiment addresses T1, human 11βHSD1 enzyme (Homo sapiens, UniProt P28845).
T1 construct: N terminal 6-His tagged full length human 11βHSD1 enzyme; 6-His (N); made in house
In words: 11βHSD1 competitive HTRF assay (conversion of cortisone to cortisol). It is filed as biochemical. To be noted: recombinant N terminal 6-His tagged full length human 11βHSD1; cortisone 160 nM; 25 minutes at 37° C.; pH 7.5. Here is the method:
The evaluation of compounds described herein was carried out using a baculovirus expressed N terminal 6-His tagged full length human 11βHSD1 enzyme (*1). The enzyme was purified from a detergent solublised cell lysate, using a copper chelate column. Inhibitors of 11βHSD1 reduce the conversion of cortisone to cortisol, which is identified by an increase in signal, in the above assay.
Compounds to be tested were dissolved in dimethyl sulphoxide (DMSO) to 10 mM and diluted further in assay buffer containing 1% DMSO to 10 fold the final assay concentration. Diluted compounds were then plated into black 384 well plates (Matrix, Hudson N.H., USA).
The assay plates were incubated for 25 minutes at 37° C. after which time the reaction was stopped by the addition of 10 μl of 0.5 mM glycerrhetinic acid plus conjugated cortisol (D2**). 10 μl of anti-cortisol Cryptate was then added and the plates sealed and incubated for 6 hours at room temperature. Fluorescence at 665 nm and 620 nm was measured and the 665 nm:620 nm ratio calculated using an Envision plate reader.
**D2 is a cortisol tracer which competes with native cortisol produced in the reaction for the monoclonal anti-cortisol antibody labelled with europium-cryptate. The antibody will fluoresce when it is bound to the cortisol tracer complex (D2 labelled with cortisol and glycyrrhetinic acid coupled together). Thus providing an accurate measure of 11beta-HSD1 activity.
On the technique in general: In TR-FRET formats the signal depends on donor and acceptor labels being close together.
With `CN(C(=O)c1cnc(N[C@@H]2CCOC2)nc1C1CCCC1)[C@H]1C2CC3CC1C[C@@](O)(C3)C2` [Example 41, 4-Cyclopentyl-N-(5-hydroxy-2-adamantyl)-N-methyl-2-[[(3R)-oxolan-3-yl]amino]pyrimidine-5-carboxamide], the IC50 was determined as 46 nM.

Turning to `O=C(N[C@H]1C2CC3CC1C[C@@](C(=O)O)(C3)C2)c1cnc(N[C@H]2CCOC2)nc1C1CCCC1` [Example 44, 4-[[4-cyclopentyl-2-[[(3S)-tetrahydrofuran-3-yl]amino]pyrimidine-5-carbonyl]amino]adamantane-1-carboxylic acid], the IC50 came out at 424 nM.

On to `O=C(N[C@H]1C2CC3CC1C[C@@](O)(C3)C2)c1cnc(N[C@H]2CCOC2)nc1-n1cccn1` [Example 40, N-(5-hydroxy-2-adamantyl)-4-pyrazol-1-yl-2-[[(3S)-tetrahydrofuran-3-yl]amino]pyrimidine-5-carboxamide], for which the IC50 amounted to 2270 nM.

Consider `O=C(N[C@H]1C2CC3CC1C[C@@](O)(C3)C2)c1cnc(N[C@H]2CCOC2)nc1C(F)(F)F` [Example 23, N-(5-hydroxy-2-adamantyl)-2-[[(3S)-oxolan-3-yl]amino]-4-(trifluoromethyl)pyrimidine-5-carboxamide], for which the IC50 was found to be 95 nM.

Take `NC(=O)[C@]12CC3CC(C1)[C@H](NC(=O)c1cnc(N[C@H]4CCOC4)nc1C1CCCC1)C(C3)C2` [Example 43, N-(5-carbamoyl-2-adamantyl)-4-cyclopentyl-2-[[(3S)-tetrahydrofuran-3-yl]amino]pyrimidine-5-carboxamide]: the half-maximal inhibitory concentration (IC50) is 17 nM.

For the compound `CC(C)c1nc(N[C@@H]2CCOC2)ncc1C(=O)N[C@H]1C2CC3CC1C[C@@](O)(C3)C2` [Example 21, N-(5-hydroxy-2-adamantyl)-4-isopropyl-2-[[(3R)-tetrahydrofuran-3-yl]amino]pyrimidine-5-carboxamide], the IC50 stood at 42 nM.

As for `O=C(N[C@H]1C2CC3CC1C[C@@](O)(C3)C2)c1cnc(NC2CCS(=O)(=O)C2)nc1C1CCCC1` (stereo partly drawn) [Example 5, 4-cyclopentyl-2-[(1,1-dioxothiolan-3-yl)amino]-N-(5-hydroxy-2-adamantyl)pyrimidine-5-carboxamide], the IC50 came out at 24 nM.

With `O=C(N[C@H]1C2CC3CC1C[C@@](O)(C3)C2)c1cnc(N[C@@H]2CCOC2)nc1-n1cccn1` [Example 39, N-(5-hydroxy-2-adamantyl)-4-pyrazol-1-yl-2-[[(3R)-tetrahydrofuran-3-yl]amino]pyrimidine-5-carboxamide], the IC50 worked out at 708 nM.

`O=C(N[C@H]1C2CC3CC1C[C@@](O)(C3)C2)c1cnc(N[C@@H]2CCOC2)nc1C(F)(F)F` [Example 22, N-(5-hydroxy-2-adamantyl)-2-[[(3R)-oxolan-3-yl]amino]-4-(trifluoromethyl)pyrimidine-5-carboxamide]: the half-inhibitory concentration (IC50) was found to be 25 nM.

With `CCCOc1nc(N[C@H]2CCOC2)ncc1C(=O)N[C@H]1C2CC3CC1C[C@@](O)(C3)C2` [Example 34, N-(5-hydroxy-2-adamantyl)-4-propoxy-2-[[(3S)-tetrahydrofuran-3-yl]amino]pyrimidine-5-carboxamide], the concentration for half-maximal inhibition (IC50) was 21 nM.

Take `CN1CC(Nc2ncc(C(=O)N[C@H]3C4CC5CC3C[C@@](O)(C5)C4)c(C3CCCC3)n2)CC1=O` (stereo partly drawn) [Example 16, 4-cyclopentyl-N-(5-hydroxy-2-adamantyl)-2-[(1-methyl-5-oxo-pyrrolidin-3-yl)amino]pyrimidine-5-carboxamide]: the IC50 was found to be 20 nM.

As for `CC(C)c1nc(N[C@H]2CCOC2)ncc1C(=O)N[C@H]1C2CC3CC1C[C@@](O)(C3)C2` [Example 20, N-(5-hydroxy-2-adamantyl)-4-isopropyl-2-[[(3S)-tetrahydrofuran-3-yl]amino]pyrimidine-5-carboxamide], the IC50 amounted to 46 nM.

For `CCN1CC(Nc2ncc(C(=O)N[C@H]3C4CC5CC3C[C@@](O)(C5)C4)c(C3CCCC3)n2)CC1=O` (stereo partly drawn) [Example 17, 4-cyclopentyl-2-[(1-ethyl-5-oxo-pyrrolidin-3-yl)amino]-N-(5-hydroxy-2-adamantyl)pyrimidine-5-carboxamide], the half-inhibitory concentration (IC50) came out at 15 nM.

Consider `CCOc1nc(N[C@H]2CCOC2)ncc1C(=O)N[C@H]1C2CC3CC1C[C@@](O)(C3)C2` [Example 25, 4-Ethoxy-N-(5-hydroxy-2-adamantyl)-2-[[(3S)-tetrahydrofuran-3-yl]amino]pyrimidine-5-carboxamide], for which the IC50 was determined as 37 nM.

On to `CCOc1nc(N[C@@H]2CCOC2)ncc1C(=O)N[C@H]1C2CC3CC1C[C@@](O)(C3)C2` [Example 24, 4-Ethoxy-N-(5-hydroxy-2-adamantyl)-2-[[(3R)-tetrahydrofuran-3-yl]amino]pyrimidine-5-carboxamide], for which the IC50 came to 45 nM.

As for `CCCOc1nc(N[C@@H]2CCOC2)ncc1C(=O)NC1C2CC3CC1CC(O)(C3)C2` (stereo partly drawn) [Example 33, N-(5-hydroxy-2-adamantyl)-4-propoxy-2-[[(3R)-tetrahydrofuran-3-yl]amino]pyrimidine-5-carboxamide], the IC50 is 19 nM.

For the compound `CN1C(=O)CC[C@@H]1CNc1ncc(C(=O)N[C@H]2C3CC4CC2C[C@@](O)(C4)C3)c(C2CCCC2)n1` [Example 18, 4-cyclopentyl-N-(5-hydroxy-2-adamantyl)-2-[[(2R)-1-methyl-5-oxo-pyrrolidin-2-yl]methylamino]pyrimidine-5-carboxamide], the half-maximal inhibitory concentration (IC50) was determined as 23 nM.

In the case of `CN(C(=O)c1cnc(N[C@H]2CCOC2)nc1C1CCCC1)[C@H]1C2CC3CC1C[C@@](O)(C3)C2` [Example 42, 4-cyclopentyl-N-(5-hydroxy-2-adamantyl)-N-methyl-2-[[(3S)-oxolan-3-yl]amino]pyrimidine-5-carboxamide], the IC50 is 32 nM.

Take `CS(=O)(=O)[C@]12CC3CC(C1)[C@H](NC(=O)c1cnc(N[C@H]4CCOC4)nc1C1CCCC1)C(C3)C2` [Example 45, 4-cyclopentyl-N-(5-methylsulfonyl-2-adamantyl)-2-[[(3S)-tetrahydrofuran-3-yl]amino]pyrimidine-5-carboxamide]: the IC50 came to 273 nM.

Take `O=C(N[C@H]1C2CC3CC1C[C@@](O)(C3)C2)c1cnc(N[C@@H]2CCOC2)nc1N1CCCC1` [Example 37, N-(5-hydroxy-2-adamantyl)-4-pyrrolidin-1-yl-2-[[(3R)-tetrahydrofuran-3-yl]amino]pyrimidine-5-carboxamide]: the IC50 was 777 nM.

As to `O=C(N[C@H]1C2CC3CC1C[C@@](O)(C3)C2)c1cnc(N[C@H]2CCOC2)nc1N1CCCC1` [Example 38, N-(5-hydroxy-2-adamantyl)-4-pyrrolidin-1-yl-2-[[(3S)-tetrahydrofuran-3-yl]amino]pyrimidine-5-carboxamide], the IC50 is 1600 nM.

For orientation: IC50 means the concentration at which inhibition is half-maximal.
